US8586533B2, “Treatment of early-stage osteoarthritis” (Kaohsiung Medical University, priority 2008, dated 2013)

Columns and labels:
Assay type in all cases: cell-based
[1] = tested on: human articular chondrocytes; assay: TUNEL staining, rate of apoptosis in chondrocyte cultures; conditions: azaC cultures, 14 days, P<0.01
Experimental: (§1) Chondrocyte cultures were divided into 4 groups.
We measured apoptotic cells using the TUNEL (terminal deoxy-nucleotidyl transferase mediated dUTP nick end labeling) staining method using the In Situ Cell Death Detection Kit, TMR red (Roche, Mannheim, Germany). Following the manufacturer's guidelines, cells were fixed with 4% paraformaldehyde in phosphate buffered saline (PBS) at a cell density of 1×10^6/ml and incubated at room temperature for 10 minutes, and then settled on a slide by centrifugation at a speed of 2,000 rpm for 5 minutes using a cytospin (Cytospin 3; Shandon, Cheshire, UK). Slides were rinsed twice with PBS, and the cells were permeabilized by incubating in permeabilization solution (0.1% Triton X-100 in 0.1% sodium citrate) for 2 minutes on ice. The TUNEL reaction mixture containing terminal deoxynucleotidyl transferase and rhodamine (the labeling dye) was added to the slides and incubated at 37° C. in a humidified chamber in the dark for 60 minutes. The reaction was stopped by a blocking buffer (0.1% Triton X-100/0.5% bovine serum albumin in PBS). Cells were counterstained by 4′,6-diamidino-2-phenylindole (DAPI). The slides were observed under a fluorescence microscope with an excitation wavelength of 580 nm for rhodamine and 365 nm for DAPI. Cell nuclei were stained blue by DAPI, and only apoptotic cells were stained red by rhodamine. Stained cells were counted in 5 microscopic fields (1.566 mm^2/field) on each slide. Data were analyzed using Image-Pro Plus analysis software (Media Cybernetics, Silver Spring, Md.). The rate of apoptosis in chondrocytes was defined as the ratio of red-stained cells (apoptotic cells) to blue-stained cells (total cells).
By using TUNEL staining, the rate of apoptosis in human articular chondrocyte cultures in the control, azaC, and azaC plus PTH groups were compared after 14 days of PTH(1-34) treatment (for the azaC plus PTH group).

[2] = tested on: human articular chondrocytes; assay: Dimethylmethylene blue (DMMB) assay of GAG levels in chondrocyte cultures; conditions: azaC group, 3 and 7 days after azaC induction, P<0.01
Experimental: as §1
Alginate beads were dissolved as described above and further digested by papain (300 μg/ml) at 60° C. for 18 hours. The levels of DNA and sulfated glycosaminoglycan (GAG) in the samples were quantified using Hoechst 33258 dye and 1,9-dimethylmethylene blue dye, respectively. A standard curve for the DMMB assay was generated using aqueous chondroitin sulfate C solution (Sigma-Aldrich, St. Louis, Mo.) at concentrations ranging from […].

[3] = tested on: human articular chondrocytes; assay: Quantitative real-time PCR of mRNA levels in azaC-induced terminal differentiation culture model; conditions: azaC group
Experimental: Chondrocyte cultures were divided into 4 groups. […] Louis, Mo.) for 48 hours.

[4] = 7 and 10 days after azaC induction, P<0.01
[5] = after 3 days of azaC induction, P<0.01
[6] = after 7 days of azaC induction, P<0.05

In the case of `Nc1ncn([C@@H]2O[C@H](CO)[C@@H](O)[C@H]2O)c(=O)n1` [azaC, 5-azacytidine], the “rate of apoptosis versus control cultures” value [1] is reported as 4.8 fold increase, the “GAG levels versus control” value [2] is reported as “significantly lower” and the “ALP mRNA level” value [3, 4] is reported as 5.3-10.9 times that of control. The “Col10a1 mRNA level” value [3, 4] was 2.3-2.4 times that of control, the Bax expression ([3]; 14 days after azaC induction, P<0.01) was 2.1 times that of control and the “aggrecan mRNA level” value ([3]; after 3 days of azaC induction (15 μg/ml, 48 hours), P<0.05) was 56 % of control. The “Col2a1 mRNA level” value [3, 5] was 46.3 % of control, the IHH expression [3, 5] was 6.5 times that of control and the “Bcl-2 mRNA level” value ([3]; after 3 days, P<0.05) was 3.2 times that of control. For the same molecule, the “aggrecan mRNA level” value ([3]; after 7 days of azaC induction, P<0.01) was 31 % of control, the “Col2a1 mRNA level” value [3, 6] was 64.8 % of control and the IHH expression [3, 6] was 2.6 times that of control. For the same molecule, the IHH expression ([3]; after 10 days of azaC induction, P<0.05) was 2.7 times that of control and the “Bcl-2 mRNA level” value ([3]; after 10 days, P<0.01) was 4.7 times that of control.
